One assay concerns human melanoma (HT168M1). In words: subcutaneous melanoma tumor model. In kind it is in vivo, CB17/scid mice. To be noted: 40 mg/kg per os, once a day five days per week for 3 weeks from day 7; FIG. 8. As to the method:
Slightly anesthetized (diethyl ether narcosis) adult male CB17/scid mice born with immunodeficiency were subcutaneously (s.c.) implanted with 8×10^5 cells from in vitro human melanoma (HT168M1) cultures. After tumor cell inoculation animals were randomly assigned into three groups and their ears were marked. From the 7th day after the tumor cell inoculation mice were treated once a day five days per week for 3 weeks with compound 2 (40 mg/kg), or with compound 3b (40 mg/kg) per os by gavage. Control animals were treated with appropriate dilution of the carrier (DMSO) in a similar manner with similar frequency. Body weight changes were monitored once a week for each animal. When subcutaneous tumor reached palpable size its dimensions were also detected with caliper. Tumor volume was estimated by the formula π/6×a×b^2, where “a” is the longer and “b” is the shorter diameter. 30 days after implantation animals were sacrificed by bleeding in Nembutal (75 mg/kg) anesthesia. Evaluation was based on the mass of the primary tumor.
In this experiment the effect of compound 2 and compound 3b was tested in oral administration at the same dose (40 mg/kg).

A further assay deals with tumor necrosis factor. The settings on record: Japanese patent application JP10072346; cited from earlier work.
For assay [1] the following is noted: Japanese patent JP10072346; cited from earlier work.

Take `CC(C)c1cccc(C(C)C)c1N1C(=O)c2c(F)c(F)c(F)c(F)c2C1=O` [Compound 2, 2-(2,6-diizopropylphenyl)-4,5,6,7-tetrafluorisoindolin-1,3-dione]: the “effect on growth of the subcutaneous primary tumor (tumor mass)” value with human melanoma (HT168M1) was “not significant”. For the same compound, the “production of tumor necrosis factor” value in the assay on tumor necrosis factor is on record as “inhibits the production of tumor necrosis factor”. In addition, the anti-inflammatory effect result in assay [1] is given as “has anti-inflammatory effect”.

(Values after US8232299B2, “Phthalimide derivatives that influence cellular vesicular systems, pharmaceutical compositions, and use thereof” (Avidin Kft., priority 2007, dated 2012).)
